The values that follow come from patent EP4803142A2 (Kayothera Inc., priority 2021, dated 2022).

Each structure is given as a SMILES string.

For assay [1], the target named is T1, mALDH1a2 (Mus musculus, UniProt Q62148).
T1 construct: pET-Aldh1a2 transformed BL21-DE3 cultures; cell extracts
T1 sequence (Q62148 1-518): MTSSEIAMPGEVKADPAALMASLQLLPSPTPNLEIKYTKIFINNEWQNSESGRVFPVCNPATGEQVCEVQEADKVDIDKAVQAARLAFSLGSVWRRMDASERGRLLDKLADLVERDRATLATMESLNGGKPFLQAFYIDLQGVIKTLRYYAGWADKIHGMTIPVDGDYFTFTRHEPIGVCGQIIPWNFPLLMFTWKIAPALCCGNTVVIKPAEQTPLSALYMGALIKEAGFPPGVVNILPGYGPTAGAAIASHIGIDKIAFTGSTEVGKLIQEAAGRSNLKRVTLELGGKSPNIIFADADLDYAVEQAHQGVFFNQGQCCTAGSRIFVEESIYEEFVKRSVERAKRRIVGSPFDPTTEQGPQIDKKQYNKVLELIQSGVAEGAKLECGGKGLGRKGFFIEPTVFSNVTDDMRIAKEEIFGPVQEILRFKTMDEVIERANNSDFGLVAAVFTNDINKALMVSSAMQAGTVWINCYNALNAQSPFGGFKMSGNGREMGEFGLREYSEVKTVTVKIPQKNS
Nature of the assay: biochemical. The following applies: read-out: mAldhla2 IC50. The procedure: (§1) Biological Example 5C. Aldh1a2 Enzyme Inhibition Assay
(§2) Cell extracts were spun at 16000 x g for 5 minutes.
(§3) Recombinant enzyme and inhibitor added immediately before assay. Reaction rate measured by resorufin fluorescence. […]
(§4) Table 3B. IC50 values (nM) for inhibition of hALDH1a2 and mALDH1a2 of selected compounds

The target of assay [2] is T2, hALDH1a2 (Homo sapiens, UniProt O94788).
T2 construct: pET-Aldh1a2 transformed BL21-DE3 cultures; cell extracts
T2 sequence (O94788 1-518): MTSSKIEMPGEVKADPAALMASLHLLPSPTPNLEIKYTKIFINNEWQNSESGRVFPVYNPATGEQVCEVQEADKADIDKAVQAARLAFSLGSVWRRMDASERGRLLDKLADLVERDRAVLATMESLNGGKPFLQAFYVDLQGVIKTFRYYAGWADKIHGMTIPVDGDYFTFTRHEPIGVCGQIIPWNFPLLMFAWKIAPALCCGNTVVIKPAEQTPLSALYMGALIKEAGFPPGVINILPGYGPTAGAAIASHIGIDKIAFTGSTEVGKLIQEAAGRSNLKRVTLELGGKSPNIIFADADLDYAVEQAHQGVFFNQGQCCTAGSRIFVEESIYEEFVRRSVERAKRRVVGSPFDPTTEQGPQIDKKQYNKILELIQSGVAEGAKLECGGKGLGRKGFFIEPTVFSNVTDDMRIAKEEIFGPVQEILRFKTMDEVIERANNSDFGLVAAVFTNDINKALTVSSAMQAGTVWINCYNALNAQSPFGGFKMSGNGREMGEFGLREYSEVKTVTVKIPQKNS
Put plainly: biochemical. Conditions: read-out: hAldhla2 IC50. How it is done: as §1, §2, §3, §4

The IC50 is the point on the concentration scale where inhibition reaches its midpoint. Regarding `CCc1cccnc1C(=O)Nc1cc2c(cc1Cl)NC(=O)CC2` [compound 72], the IC50 in assay [1] and in assay [2] was > 10000 nM in each case.

For the compound `CCc1c[n+]([O-])ccc1C(=O)Nc1ccc2c(c1)CCC(=O)N2` [compound 73], the IC50 in assay [1] and in assay [2] was > 10000 nM throughout.

For the compound `CCc1cc(=O)n(C)cc1C(=O)Nc1ccc2c(c1)CCC(=O)N2` [compound 76], the IC50 in assay [1] turned out to be 4310 nM; in assay [2], 6560 nM.

As to `CCc1cnc(F)cc1C(=O)Nc1ccc2c(c1)CCC(=O)N2` [compound 78], the IC50 in assay [1] came out at 366 nM; in assay [2] it was 460 nM.

Turning to `CCc1cnc(C)cc1C(=O)Nc1cc2c(cc1F)NC(=O)CC2` [compound 79], the IC50 in assay [1] was determined as 849 nM; in assay [2], 1460 nM.

As for `CCc1cnc(Cl)cc1C(=O)Nc1cc2c(cc1F)NC(=O)CC2` [compound 80], the 50% inhibitory concentration (IC50) in assay [1] is 324 nM; in assay [2] it was 384 nM.

For `O=C1CCc2cc(NC(=O)c3ccncc3CC3CC3)c(F)cc2N1` [compound 81], the 50% inhibitory concentration (IC50) was found to be 522 nM in assay [1] and 376 nM in assay [2].

Turning to `CCc1cnccc1C(=O)Nc1cc2c(cc1C#N)NC(=O)CC2` [compound 84], the half-inhibitory concentration (IC50) in assay [1] and in assay [2] was > 10000 nM each time.

`N#Cc1cccc2nc(Nc3ccc4c(c3)CCC(=O)N4)ccc12` [compound 86]: the IC50 is 84 nM in assay [1] and 10000 nM in assay [2].

With `Cc1cccc2nc(Nc3ccc4c(c3)CCC(=O)N4)ccc12` [compound 87], the 50% inhibitory concentration (IC50) was 149 nM in assay [1] and 419 nM in assay [2].

As to `N#Cc1ccc2nc(Nc3ccc4c(c3)CCC(=O)N4)ccc2c1` [compound 88], the half-inhibitory concentration (IC50) in assay [1] and in assay [2] was > 10000 nM throughout.

Turning to `Cc1ccc2nc(Nc3ccc4c(c3)CCC(=O)N4)ccc2c1` [compound 89], the half-inhibitory concentration (IC50) came to 489 nM in assay [1] and 10000 nM in assay [2].

As to `N#Cc1ccc2ccc(Nc3ccc4c(c3)CCC(=O)N4)nc2c1` [compound 90], the IC50 in assay [1] stood at 6380 nM; in assay [2], 10000 nM.

With `Cc1ccc2ccc(Nc3ccc4c(c3)CCC(=O)N4)nc2c1` [compound 91], the half-inhibitory concentration (IC50) stood at 594 nM in assay [1] and 998 nM in assay [2].

`CC1(C)Cc2cc(Nc3cnc4ccccc4n3)ccc2NC1=O` [compound 92]: the IC50 in assay [1] stood at 31 nM; in assay [2], 40 nM.

For the compound `CC1(C)Cc2cc(Nc3ncc4ccccc4n3)ccc2NC1=O` [compound 93], the IC50 came out at 63 nM in assay [1] and 80 nM in assay [2].

On to `CC1(C)Cc2cc(Nc3ccc4ccncc4n3)ccc2NC1=O` [compound 94], for which the figures for the IC50 in assay [1] and in assay [2] were 921 nM and 809 nM, respectively.

Consider `CC1(C)Cc2cc(Nc3ccc4cnccc4n3)ccc2NC1=O` [compound 95], for which the 50% inhibitory concentration (IC50) in assay [1] turned out to be 1770 nM; in assay [2], 10000 nM.

As for `Cc1ccc(Nc2ccc3c(c2)CC(C)(C)C(=O)N3)nc1C` [compound 96], the IC50 in assay [1] and in assay [2] was > 10000 nM each time.

On to `CC1(C)Cc2cc(Nc3ccc(Cl)c(Cl)n3)ccc2NC1=O` [compound 97], for which the figures for the IC50 in assay [1] and in assay [2] were 294 nM and 466 nM, respectively.

For the compound `CC1(C)Cc2cc(Nc3nc4ccccc4[nH]3)ccc2NC1=O` [compound 98], the IC50 in assay [1] turned out to be 1290 nM; in assay [2] it was 3080 nM.

Consider `CC1(C)Cc2cc(Nc3nc4ccccc4o3)ccc2NC1=O` [compound 99], for which the values for the IC50 in assay [1] and in assay [2] were 184 nM and 316 nM, respectively.

As for `N#Cc1cccc2ncc(Nc3ccc4c(c3)CCC(=O)N4)cc12` [compound 100], the concentration for half-maximal inhibition (IC50) in assay [1] and in assay [2] was > 10000 nM each time.

Take `Cc1cccc2ncc(Nc3ccc4c(c3)CCC(=O)N4)cc12` [compound 101]: the IC50 is 935 nM in assay [1] and 1890 nM in assay [2].

With `O=S1(=O)CCc2cc(Nc3ccc4ccccc4n3)ccc2N1` [compound 102], the concentration for half-maximal inhibition (IC50) in assay [1] and in assay [2] was > 10000 nM throughout.

As to `CC1(C)Cc2cc(Nc3ccc4cnccc4c3)ccc2NC1=O` [compound 103], the results for the concentration for half-maximal inhibition (IC50) in assay [1] and in assay [2] were 5000 nM and > 10000 nM, respectively.

Consider `CC1(C)Cc2cc(Nc3ccc4ccncc4c3)ccc2NC1=O` [compound 104], for which the IC50 in assay [1] and in assay [2] was > 10000 nM throughout.

Regarding `CC1(C)Cc2cc(NC3COc4ccccc4C3)ccc2NC1=O` (stereo not shown) [compound 105], the IC50 in assay [1] and in assay [2] was > 10000 nM each time.

Regarding `CC1(C)Cc2cc(NN3CCC(c4ccccc4)C3=O)ccc2NC1=O` (stereo not shown) [compound 106], the IC50 in assay [1] and in assay [2] was > 10000 nM throughout.

For the compound `CC1(C)Cc2cc(Nc3ncc4ccccc4n3)c(F)cc2NC1=O` [compound 108], the 50% inhibitory concentration (IC50) in assay [1] worked out at 100 nM; in assay [2], 120 nM.

On to `CC1(C)Cc2cc(Nc3cnc4ccccc4n3)c(F)cc2NC1=O` [compound 109], for which the IC50 in assay [1] was 45 nM; in assay [2], 42 nM.

Turning to `Cc1cccc2ccc(Nc3ccc4c(c3)CC(C)(C)C(=O)N4)nc12` [compound 111], the IC50 in assay [1] turned out to be 145 nM; in assay [2], 196 nM.

Consider `CC1(C)Cc2cc(Nc3ccc4c(Cl)cccc4n3)ccc2NC1=O` [compound 112], for which the half-maximal inhibitory concentration (IC50) in assay [1] came out at 300 nM; in assay [2] it was 346 nM.

Take `Cn1ccc2nc(Nc3ccc4c(c3)CC(C)(C)C(=O)N4)ccc21` [compound 113]: the half-inhibitory concentration (IC50) in assay [1] and in assay [2] was > 10000 nM throughout.

As for `CC1(C)Cc2cc(Nc3ccc4c(c3)NC(=O)CC4)ccc2NC1=O` [compound 114], the half-inhibitory concentration (IC50) in assay [1] and in assay [2] was > 10000 nM in each case.

As for `CC1(C)Cc2cc(Nc3c[nH]c4ccccc4c3=O)ccc2NC1=O` [compound 115], the IC50 in assay [1] and in assay [2] was > 10000 nM throughout.

In the case of `CC1(C)Cc2cc(Nc3nc(=O)c4ccccc4[nH]3)ccc2NC1=O` [compound 116], the half-inhibitory concentration (IC50) in assay [1] came to 337 nM; in assay [2], 305 nM.

Take `CC1(C)Cc2cc(Nc3cnc4ccc(C(=O)O)cc4n3)ccc2NC1=O` [compound 118]: the IC50 in assay [1] and in assay [2] was > 10000 nM in each case.

On to `O=C1CCc2cc(Oc3ncc4ccccc4n3)ccc2N1` [compound 119], for which the IC50 is 10000 nM in assay [1] and > 10000 nM in assay [2].

Consider `COC(=O)c1ccc2ncc(Nc3ccc4c(c3)CC(C)(C)C(=O)N4)nc2c1` [compound 120], for which the IC50 in assay [1] was > 10000 nM; in assay [2], 10000 nM.

On to `CC1(C)Cc2cc(Nc3cccc(Cl)n3)ccc2NC1=O` [compound 122], for which the IC50 in assay [1] and in assay [2] was > 10000 nM in each case.

As to `CC1(C)Cc2cc(Nc3ccc(Cl)cn3)ccc2NC1=O` [compound 123], the half-inhibitory concentration (IC50) in assay [1] and in assay [2] was > 10000 nM each time.

Take `CC1(C)Cc2cc(Nc3cc(Cl)c(Cl)cn3)ccc2NC1=O` [compound 125]: the results for the IC50 in assay [1] and in assay [2] were 4050 nM and 4490 nM, respectively.

Take `O=C1CCc2cc(Nc3cnc4ccccc4n3)ncc2N1` [compound 126]: the concentration for half-maximal inhibition (IC50) worked out at 165 nM in assay [1] and 214 nM in assay [2].

`CC1(C)Cc2cc(Nc3ccc4c(n3)CCCC4=O)ccc2NC1=O` [compound 127]: the IC50 in assay [1] was found to be 1290 nM; in assay [2], 894 nM.

`Cc1nc(Nc2ccc3c(c2)CC(C)(C)C(=O)N3)nc2ccccc12` [compound 132]: the concentration for half-maximal inhibition (IC50) in assay [1] worked out at 53 nM; in assay [2], 71 nM.

For the compound `Cc1cc2ccccc2nc1Nc1ccc2c(c1)CC(C)(C)C(=O)N2` [compound 134], the IC50 in assay [1] was determined as 97 nM; in assay [2], 125 nM.

As for `CC1(C)Cc2cc(Nc3c[nH]c4c(c3=O)CCCC4)ccc2NC1=O` [compound 135], the IC50 in assay [1] and in assay [2] was > 10000 nM each time.

For `CCc1cnccc1C(=O)Nc1ccc2c(c1)C(F)(F)C(=O)N2` [compound 136], the 50% inhibitory concentration (IC50) in assay [1] and in assay [2] was > 10000 nM each time.

Regarding `CCc1cnccc1C(=O)Nc1ccc2c(c1)C(C)(C)C(=O)N2` [compound 137], the 50% inhibitory concentration (IC50) in assay [1] is > 100000 nM; in assay [2], > 10000 nM.
